pKi: −log10 of the molar value.
target: T1, purified human Factor XIa (Homo sapiens, UniProt P03951); assay: Factor XIa assay (chromogenic substrate hydrolysis, Ki); type: biochemical; details: purified human Factor XIa 75-200 pM, substrate S-2366, 50 mM HEPES pH 7.4
T1 construct: purchased Haematologic Technologies
Description: The effectiveness of compounds of the present invention as inhibitors of the coagulation factors XIa, VIIa, IXa, Xa, XIIa, plasma kallikrein or thrombin, can be determined using a relevant purified serine protease, respectively, and an appropriate synthetic substrate. The rate of hydrolysis of the chromogenic or fluorogenic substrate by the relevant serine protease was measured both in the absence and presence of compounds of the present invention. […] A decrease in the rate of absorbance or fluorescence change in the presence of inhibitor is indicative of enzyme inhibition. Such methods are known to one skilled in the art. The results of this assay are expressed as the inhibitory constant, Ki.
Factor XIa determinations were made in 50 mM HEPES buffer at pH 7.4 containing 145 mM NaCl, 5 mM KCl, and 0.1% PEG 8000 (polyethylene glycol; JT Baker or Fisher Scientific). Determinations were made using purified human Factor XIa at a final concentration of 75-200 pM (Haematologic Technologies) and the synthetic substrate S-2366 (pyroGlu-Pro-Arg-pNA; Chromogenix or AnaSpec) at a concentration of 0.0002-0.001 M.
The Michaelis constant, Km, for substrate hydrolysis by each protease, was determined at 25° C. using the method of Lineweaver and Burk. Values of Ki were determined by allowing the protease to react with the substrate in the presence of the inhibitor. Reactions were allowed to go for periods of 20-180 minutes (depending on the protease) and the velocities (rate of absorbance or fluorescence change versus time) were measured. The following relationships were used to calculate Ki values: (vo−vs)/vs=I/(Ki(1+S/Km)) for a competitive inhibitor with one binding site; or vs/vo=A+((B−A)/1+((IC50/(I)^n))); and Ki=IC50/(1+S/Km) for a competitive inhibitor where: […]

T1 sequence (P03951 388-625 limits assumed): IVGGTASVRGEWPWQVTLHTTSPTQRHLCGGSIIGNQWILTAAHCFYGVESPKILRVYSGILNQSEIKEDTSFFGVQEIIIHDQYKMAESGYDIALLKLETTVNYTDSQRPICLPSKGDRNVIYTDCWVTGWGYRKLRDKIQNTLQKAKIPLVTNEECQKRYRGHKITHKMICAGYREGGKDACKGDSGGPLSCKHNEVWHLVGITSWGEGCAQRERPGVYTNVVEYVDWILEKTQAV
T1 sequence (P03951 19-387 partner limits assumed): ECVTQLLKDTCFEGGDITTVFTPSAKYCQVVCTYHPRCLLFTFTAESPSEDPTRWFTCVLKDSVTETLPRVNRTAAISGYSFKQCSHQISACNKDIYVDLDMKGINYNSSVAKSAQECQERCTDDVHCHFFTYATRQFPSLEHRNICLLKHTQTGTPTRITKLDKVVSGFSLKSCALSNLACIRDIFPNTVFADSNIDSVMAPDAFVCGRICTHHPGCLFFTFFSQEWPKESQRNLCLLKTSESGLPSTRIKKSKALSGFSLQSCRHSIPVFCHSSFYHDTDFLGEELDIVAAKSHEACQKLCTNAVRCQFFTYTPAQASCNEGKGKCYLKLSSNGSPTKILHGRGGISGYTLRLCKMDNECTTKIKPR

pKi | SMILES
8.54 | COC(=O)Nc1ccc(-c2cc(C(CC(=O)OC(C)(C)C)NC(=O)/C=C/c3cc(Cl)ccc3-n3cnnn3)c(Cl)nn2)cc1 (single isomer, unassigned) [Example 20, (E)-tert-Butyl 3-(3-(5-chloro-2-(1H-tetrazol-1-yl)phenyl)acrylamido)-3-(3-chloro-6-(4-(methoxycarbonylamino)phenyl)pyridazin-4-yl)propanoate]
6.81 | COC(=O)Nc1ccc(-c2cc([C@H](Cc3ccccc3)NC(=O)/C=C/c3cc(Cl)ccc3-n3cnnn3)nn(C)c2=O)cc1 [Example 40, (S,E)-Methyl 4-(6-(1-(3-(5-chloro-2-(1H-tetrazol-1-yl)phenyl)acrylamido)-2-phenylethyl)-2-methyl-3-oxo-2,3-dihydropyridazin-4-yl)phenylcarbamate]
7.17 | COC(=O)Nc1ccc(-c2cc([C@H](CCSC)NC(=O)/C=C/c3cc(Cl)ccc3-n3cnnn3)nnc2Cl)cc1 [Example 90, (S,E)-Methyl 4-(3-chloro-6-(1-(3-(5-chloro-2-(1H-tetrazol-1-yl)phenyl)acrylamido)-3-(methylthio)propyl)pyridazin-4-yl)phenylcarbamate]
7.28 | COC(=O)Nc1ccc(-c2cc(C(C)NC(=O)/C=C/c3cc(Cl)ccc3-n3cnnn3)c(Cl)nn2)cc1 (racemic) [Example 11, (±)-(E)-Methyl 4-(6-chloro-5-(1-(3-(5-chloro-2-(1H-tetrazol-1-yl)phenyl)acrylamido)ethyl)pyridazin-3-yl)phenylcarbamate]
5.93 | COC(=O)Nc1ccc(-c2cc(C(Cc3ccccc3)NC(=O)/C=C/c3cc(Cl)ccc3-n3ccnc3)c(Cl)nn2)cc1 (racemic) [Example 8, (±)-(E)-Methyl 4-(6-chloro-5-(1-(3-(5-chloro-2-(1H-imidazol-1-yl)phenyl)acrylamido)-2-phenylethyl)pyridazin-3-yl)phenylcarbamate]
8.40 | COC(=O)Nc1ccc(-c2cc(C(CC(=O)N3CCN(C)CC3)NC(=O)/C=C/c3cc(Cl)ccc3-n3cnnn3)c(Cl)nn2)cc1 (single isomer, unassigned) [Example 27, (E)-Methyl 4-(6-chloro-5-(1-(3-(5-chloro-2-(1H-tetrazol-1-yl)phenyl)acrylamido)-3-(4-methylpiperazin-1-yl)-3-oxopropyl)pyridazin-3-yl)phenylcarbamate]
6.39 | CCOC(=O)Nc1ccc(-c2cc([C@H](Cc3ccccc3)NC(=O)/C=C/c3cc(Cl)ccc3-n3cnnn3)nnc2OCC)cc1 [Example 51, (S,E)-Ethyl 4-(6-(1-(3-(5-chloro-2-(1H-tetrazol-1-yl)phenyl)acrylamido)-2-phenylethyl)-3-ethoxypyridazin-4-yl)phenylcarbamate]
7.24 | COC(=O)Nc1ccc(-c2cc([C@H](Cc3cscn3)NC(=O)/C=C/c3cc(Cl)ccc3-n3cnnn3)nnc2Cl)cc1 [Example 123, (S,E)-Methyl 4-(3-chloro-6-(1-(3-(5-chloro-2-(1H-tetrazol-1-yl)phenyl)acrylamido)-2-(thiazol-4-yl)ethyl)pyridazin-4-yl)phenylcarbamate]
5.20 | COC(=O)Nc1ccc(-c2cc([C@H](CC3CCCN(C(=O)C4CC4)C3)NC(=O)/C=C/c3cc(Cl)ccc3-n3cnnn3)nnc2Cl)cc1 (stereo partly drawn) [Example 112, Methyl 4-(3-chloro-6-((1S)-1-((E)-3-(5-chloro-2-(1 H-tetrazol-1-yl)phenyl)acrylamido)-2-(1-(cyclopropanecarbonyl)piperidin-3-yl)ethyl)pyridazin-4-yl)phenylcarbamate]

From US8324199B2, “Pyridazine derivatives as factor xia inhibitors” (Bristol-Myers Squibb Company, priority 2008, dated 2012)
